Laboratory results taken from patent US8802664B2 (Bioproject, priority 2010, dated 2014).

Legend:
human H4 receptor = biological target: T1, human H4 receptor (Homo sapiens, UniProt Q9H3N8); assay: [3H]Histamine binding on membranes of CHO cells stably expressing human H4 receptor
T1 construct: expressed in transfected cells
Summary of the method: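 Filter-bound counts (liquid scintillation) gave H4 binding. Incubation used 20 μg membrane protein/well in Tris/HCl 50 mM plus EDTA 0.5 mM at pH 7.4, and 10 μM JNJ 7777120 set nonspecific binding. Filtration on GF/B pretreated with polyethyleneimine stopped the reaction.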

T1 sequence (Q9H3N8 whole entry): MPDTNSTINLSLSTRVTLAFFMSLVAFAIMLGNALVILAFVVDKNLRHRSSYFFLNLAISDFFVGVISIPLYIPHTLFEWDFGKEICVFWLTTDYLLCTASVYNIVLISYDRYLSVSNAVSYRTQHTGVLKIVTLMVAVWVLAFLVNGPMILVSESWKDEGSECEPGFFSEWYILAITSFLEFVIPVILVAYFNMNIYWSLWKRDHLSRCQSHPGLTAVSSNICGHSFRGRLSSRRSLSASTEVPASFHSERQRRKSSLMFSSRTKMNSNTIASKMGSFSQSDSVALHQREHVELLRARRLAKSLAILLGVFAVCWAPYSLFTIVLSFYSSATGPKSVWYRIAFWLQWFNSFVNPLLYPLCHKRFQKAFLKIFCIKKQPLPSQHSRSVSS

Compound | melting point | Ki or IC50 activity class (human H4 receptor)
CN1CCC(NC(c2cccc(-c3ccco3)c2)c2nc3ccccc3[nH]2)CC1 (stereo not shown) [Example 144, [(1H-benzimidazol-2-yl)(3-furan-2-ylphenyl)methyl](1-methylpiperidin-4-yl)amine] | 108 °C | < 30 nM
CN1CCC(OC(c2ccc(F)cc2)c2nc3ccccc3[nH]2)CC1 (stereo not shown) [Example 179, 2-[(4-fluorophenyl)(1-methylpiperidin-4-yloxy)methyl]-1H-benzimidazole] | 131 °C | < 300 nM
CN1CCC(OC(c2nc3ccccc3[nH]2)c2cccc(OC(F)(F)F)c2O)CC1 (stereo not shown) [Example 620] | 126 °C | < 30 nM
CN1CCC(OC(c2cccc(-c3ccc4c(c3)OCO4)c2)c2nc3ccccc3[nH]2)CC1 (stereo not shown) [Example 184, 2-[(3-benzo[1,3]dioxol-5-ylphenyl)(1-methylpiperidin-4-yloxy)methyl]-1H-benzimidazole] | 95 °C | < 300 nM
CCCOc1cccc(C(NC2CCN(C)CC2)c2nc3ccccc3[nH]2)c1 (stereo not shown) [Example 50, [(1H-benzimidazol-2-yl)(3-propoxyphenyl)methyl](1-methylpiperidin-4-yl)amine] | 143 °C | < 30 nM
Cc1cccc(C(OC2CCN(C)CC2)c2nc3ccccc3[nH]2)c1 (stereo not shown) [Example 164, 2-[(1-methylpiperidin-4-yloxy)(m-tolyl)methyl]-1H-benzimidazole] | 119 °C | < 300 nM
CCOc1ccc(F)c(C(OC2CCN(C)CC2)c2nc3ccccc3[nH]2)c1F (stereo not shown) [Example 535] | 130 °C | < 300 nM
CCOc1ccc(O)c(C(OC2CCN(C)CC2)c2nc3ccccc3[nH]2)c1 (stereo not shown) [Example 576] | 213 °C | < 30 nM
CN1CCC(OC(c2ccccc2)c2nc3cc(Cl)c(Cl)cc3[nH]2)CC1 (stereo not shown) [Example 165, 5,6-dichloro-2-[(1-methylpiperidin-4-yloxy)phenylmethyl]-1H-benzimidazole] | 221 °C | < 300 nM
CN1CCC(OC(c2nc3ccccc3[nH]2)c2cc(Cc3ccccc3)ccc2O)CC1 (stereo not shown) [Example 596] | 120 °C | < 30 nM
CN1CCC(OC(c2nc3ccccc3[nH]2)c2cc(OC(F)(F)F)ccc2F)CC1 (stereo not shown) [Example 433, 2-[(2-fluoro-5-trifluoromethoxyphenyl)(1-methylpiperidin-4-yloxy)methyl]-1H-benzimidazole] | 95 °C | < 30 nM
CC(=O)c1cccc(C(NC2CCN(C)CC2)c2nc3ccccc3[nH]2)c1 (stereo not shown) [Example 90, 1-{3-[(1H-benzimidazol-2-yl)(1-methylpiperidin-4-ylamino)methyl]phenyl}ethanone] | 198 °C | < 300 nM
CN1CCC(OC(c2nc3ccccc3[nH]2)c2ccc(Cl)cc2O)CC1 (stereo not shown) [Example 585] | 142 °C | < 30 nM
CN1CCC(OC(c2nc3ccccc3[nH]2)c2ccc(C(F)(F)F)cc2F)CC1 (stereo not shown) [Example 540] | 91 °C | < 300 nM
CN1CCC(OC(c2nc3ccccc3[nH]2)c2cc(OCC(F)(F)F)ccc2F)CC1 (stereo not shown) [Example 522] | 204 °C | < 30 nM
CN1CCC(OC(c2cccc(CCCCCCNC(=N)NC(=O)OC(C)(C)C)c2)c2nc3ccccc3[nH]2)CC1 (stereo not shown) [Example 364, N-tert-butoxycarbonyl-N′-(6-{3-[(1H-benzimidazol-2-yl)(1-methylpiperidin-4-yloxy)methyl]phenyl}hexyl)guanidine] | 90 °C | < 1000 nM
CN1CCC(OC(c2cccc(C#CC3CCCNC3)c2)c2nc3ccccc3[nH]2)CC1 (stereo not shown) [Example 380, 2-[(1-methylpiperidin-4-yloxy)(3-piperidin-3-ylethynylphenyl)methyl]-1H-benzimidazole] | 97 °C | < 300 nM
C=CCCOc1cccc(C(NC2CCN(C)CC2)c2nc3ccccc3[nH]2)c1 (stereo not shown) [Example 145, [(1H-benzimidazol-2-yl)(3-but-3-enyloxyphenyl)methyl](1-methylpiperidin-4-yl)amine] | 71 °C | < 300 nM
CN1CCC(OC(c2cccc(SC(C)(C)CCO)c2)c2nc3ccccc3[nH]2)CC1 (stereo not shown) [Example 235, 3-{3-[(1H-benzimidazol-2-yl)(1-methylpiperidin-4-yloxy)methyl]phenylsulfanyl}-3-methyl-butan-1-ol] | 80 °C | < 1000 nM
CN1CCC(OC(c2cccc(OCCCCN3CCN(C(=O)OC(C)(C)C)CC3)c2)c2nc3ccccc3[nH]2)CC1 (stereo not shown) [Example 343, 4-(4-{3-[(1H-benzimidazol-2-yl)(1-methylpiperidin-4-yloxy)methyl]phenoxy}butyl)piperazine-1-carboxylic acid tert-butyl ester] | 64 °C | < 300 nM
CN1CCC(OC(c2nc3ccccc3[nH]2)c2cc(F)cc(F)c2O)CC1 (stereo not shown) [Example 579] | 142 °C | < 1000 nM
CN1CCC(OC(c2cccc(C#CCN)c2)c2nc3ccccc3[nH]2)CC1 (stereo not shown) [Example 194, 3-{3-[(1H-benzimidazol-2-yl)(1-methylpiperidin-4-yloxy)methyl]phenyl}prop-2-ynylamine] | 101 °C | < 300 nM

Compound | melting point | Ki or IC50 activity class (human H4 receptor)
Cc1ccc(C(OC2CCN(C)CC2)c2nc3ccccc3[nH]2)c(O)c1F (stereo not shown) [Example 601, 6-[(1H-benzimidazol-2-yl)(1-methylpiperidin-4-yloxy)methyl]-2-fluoro-3-methylphenol] | 148 °C | < 30 nM
CN1CCC(OC(c2nc3ccccc3[nH]2)c2cc(Cl)cc(F)c2O)CC1 (stereo not shown) [Example 599] | 146 °C | < 300 nM
CN1CCC(OC(c2cccc(-c3cncnc3)c2)c2nc3ccccc3s2)CC1 (stereo not shown) [Example 216, 2-[(1-methylpiperidin-4-yloxy)(3-pyrimidin-5-yl-phenyl)methyl]benzothiazole] | 85 °C | < 300 nM
CCCc1ccc(O)c(C(OC2CCN(C)CC2)c2nc3ccccc3[nH]2)c1 (stereo not shown) [Example 591] | 120 °C | < 300 nM
Cc1cc(C(OC2CCN(C)CC2)c2nc3ccccc3[nH]2)c(O)c(F)c1C (stereo not shown) [Example 622] | 163 °C | < 300 nM
COc1cccc(C(OC2CCN(C)CC2)c2nc3ccccc3[nH]2)c1O (stereo not shown) [Example 592] | 112 °C | < 300 nM
CSc1ccc(O)c(C(OC2CCN(C)CC2)c2nc3ccccc3[nH]2)c1 (stereo not shown) [Example 587] | 138 °C | < 30 nM
CN1CCC(OC(c2cccc(OCCCN)c2)c2nc3ccccc3[nH]2)CC1 (stereo not shown) [Example 327, 3-{3-[(1H-benzimidazol-2-yl)(1-methylpiperidin-4-yloxy)methyl]phenoxy}propylamine] | 97 °C | < 300 nM
CN1CCC(OC(c2nc3ccccc3[nH]2)c2cc(Br)ccc2O)CC1 (stereo not shown) [Example 575] | 145 °C | < 30 nM
Cc1c(F)ccc(C(OC2CCN(C)CC2)c2nc3ccccc3[nH]2)c1O (stereo not shown) [Example 623] | 97 °C | < 30 nM
CN1CCC(OC(c2nc3ccccc3[nH]2)c2cc3c(cc2O)CCC3)CC1 (stereo not shown) [Example 602] | 152 °C | < 300 nM
Cc1ccc(C(OC2CCN(C)CC2)c2nc3ccccc3[nH]2)cc1F (stereo not shown) [Example 554] | 92 °C | < 300 nM
CN1CCC(NC(c2cccc(OCC3CCCCC3)c2)c2nc3ccccc3[nH]2)CC1 (stereo not shown) [Example 73, [(1H-benzimidazol-2-yl)(3-cyclohexylmethoxyphenyl)methyl](1-methylpiperidin-4-yl)amine] | 88 °C | < 300 nM
Cc1cc(O)c(C(OC2CCN(C)CC2)c2nc3ccccc3[nH]2)cc1F (stereo not shown) [Example 613] | 102 °C | < 30 nM
CN1CCC(OC(c2cccc(Br)c2)c2nc3cc(F)c(F)c(F)c3[nH]2)CC1 (stereo not shown) [Example 481, 2-[(3-bromophenyl)(1-methylpiperidin-4-yloxy)methyl]-5,6,7-trifluoro-1H-benzimidazole] | 140 °C | < 1000 nM
CN1CCC(NC(c2cccc(-c3ccccc3)c2)c2nc3ccccc3[nH]2)CC1 (stereo not shown) [Example 94, [(1H-benzimidazol-2-yl)biphenyl-3-ylmethyl](1-methylpiperidin-4-yl)amine] | 98 °C | < 30 nM
CCc1cccc(C(NC2CCN(C)CC2)c2nc3ccccc3[nH]2)c1 (stereo not shown) [Example 61, [(1H-benzimidazol-2-yl)(3-ethylphenyl)methyl](1-methylpiperidin-4-yl)amine] | 76 °C | < 30 nM
CN1CCC(OC(c2ccccc2)c2nc3cc(F)ccc3[nH]2)CC1 (stereo not shown) [Example 166, 5-fluoro-2-[(1-methylpiperidin-4-yloxy)phenylmethyl]-1H-benzimidazole] | 134 °C | < 30 nM
CN1CCC(OC(c2cccc(-c3ccc(OC(F)(F)F)cc3)c2)c2nc3ccccc3[nH]2)CC1 (stereo not shown) [Example 182, 2-[(1-methylpiperidin-4-yloxy)(4′-trifluoromethoxybiphenyl-3-yl)methyl]-1H-benzimidazole] | 90 °C | < 30 nM
CN1CCC(OC(c2nc3ccccc3[nH]2)c2cc(OC(F)(F)F)ccc2O)CC1 (stereo not shown) [Example 571] | 132 °C | < 30 nM
CN1CCC(OC(c2nc3ccccc3[nH]2)c2ccc(C(F)(F)F)cc2O)CC1 (stereo not shown) [Example 617] | 144 °C | < 30 nM
CSc1ccccc1-c1cccc(C(OC2CCN(C)CC2)c2nc3ccccc3[nH]2)c1 (stereo not shown) [Example 114, 2-[(1-methylpiperidin-4-yloxy)(2′-methylsulfanylbiphenyl-3-yl)methyl]-1H-benzimidazole] | 163 °C | < 300 nM
